Values quoted from earlier work as cited in US20260232577A1, “A MACROLIDE FOR USE IN A METHOD OF PREVENTING OR TREATING AN IMMUNOLOGICAL DISEASE OR DISORDER” (Nucleus Medical GmbH, priority 2023, published 2026).

bioavailability variability (after oral administration, international literature): 4-90%
blood level fluctuations, variation range (after oral application, internationally described): more than 80%
oral bioavailability on average (limited by presystemic metabolism in the GI tract): ~ 25%
SMILES: C=CC[C@@H]1/C=C(\C)C[C@H](C)C[C@H](OC)[C@H]2O[C@@](O)(C(=O)C(=O)N3CCCC[C@H]3C(=O)O[C@H](/C(C)=C/[C@@H]3CC[C@@H](O)[C@H](OC)C3)[C@H](C)[C@@H](O)CC1=O)[C@H](C)C[C@@H]2OC [tacrolimus]
